The results in this text go back to patent US9212139B2, “Aryl substituted indoles and their use as blockers of sodium channels” (Purdue Pharma, L.P., priority 2010, dated 2015).

One test deals with human Nav1.7 (Homo sapiens (Human), UniProt Q15858). The test is described as follows: FLIPR or FLIPR TETRA sodium dye assay with KCl and test article pre-incubation. It counts as cell-based. Conditions: read-out: FLIPR Nav1.7 IC50 (μM) ± SEM. The source says: For dominant selection of the Nav1.7-expressing clones, the expression plasmid co-expressed the neomycin resistance gene. […] Recombinant beta and gamma subunits were not introduced into this cell line. Additional cell lines expressing recombinant Nav1.7 cloned from other species can also be used, alone or in combination with various beta subunits, gamma subunits or chaperones.
Chain of human Nav1.7 (Q15858 other isoform, or with tags, fused parts or gaps): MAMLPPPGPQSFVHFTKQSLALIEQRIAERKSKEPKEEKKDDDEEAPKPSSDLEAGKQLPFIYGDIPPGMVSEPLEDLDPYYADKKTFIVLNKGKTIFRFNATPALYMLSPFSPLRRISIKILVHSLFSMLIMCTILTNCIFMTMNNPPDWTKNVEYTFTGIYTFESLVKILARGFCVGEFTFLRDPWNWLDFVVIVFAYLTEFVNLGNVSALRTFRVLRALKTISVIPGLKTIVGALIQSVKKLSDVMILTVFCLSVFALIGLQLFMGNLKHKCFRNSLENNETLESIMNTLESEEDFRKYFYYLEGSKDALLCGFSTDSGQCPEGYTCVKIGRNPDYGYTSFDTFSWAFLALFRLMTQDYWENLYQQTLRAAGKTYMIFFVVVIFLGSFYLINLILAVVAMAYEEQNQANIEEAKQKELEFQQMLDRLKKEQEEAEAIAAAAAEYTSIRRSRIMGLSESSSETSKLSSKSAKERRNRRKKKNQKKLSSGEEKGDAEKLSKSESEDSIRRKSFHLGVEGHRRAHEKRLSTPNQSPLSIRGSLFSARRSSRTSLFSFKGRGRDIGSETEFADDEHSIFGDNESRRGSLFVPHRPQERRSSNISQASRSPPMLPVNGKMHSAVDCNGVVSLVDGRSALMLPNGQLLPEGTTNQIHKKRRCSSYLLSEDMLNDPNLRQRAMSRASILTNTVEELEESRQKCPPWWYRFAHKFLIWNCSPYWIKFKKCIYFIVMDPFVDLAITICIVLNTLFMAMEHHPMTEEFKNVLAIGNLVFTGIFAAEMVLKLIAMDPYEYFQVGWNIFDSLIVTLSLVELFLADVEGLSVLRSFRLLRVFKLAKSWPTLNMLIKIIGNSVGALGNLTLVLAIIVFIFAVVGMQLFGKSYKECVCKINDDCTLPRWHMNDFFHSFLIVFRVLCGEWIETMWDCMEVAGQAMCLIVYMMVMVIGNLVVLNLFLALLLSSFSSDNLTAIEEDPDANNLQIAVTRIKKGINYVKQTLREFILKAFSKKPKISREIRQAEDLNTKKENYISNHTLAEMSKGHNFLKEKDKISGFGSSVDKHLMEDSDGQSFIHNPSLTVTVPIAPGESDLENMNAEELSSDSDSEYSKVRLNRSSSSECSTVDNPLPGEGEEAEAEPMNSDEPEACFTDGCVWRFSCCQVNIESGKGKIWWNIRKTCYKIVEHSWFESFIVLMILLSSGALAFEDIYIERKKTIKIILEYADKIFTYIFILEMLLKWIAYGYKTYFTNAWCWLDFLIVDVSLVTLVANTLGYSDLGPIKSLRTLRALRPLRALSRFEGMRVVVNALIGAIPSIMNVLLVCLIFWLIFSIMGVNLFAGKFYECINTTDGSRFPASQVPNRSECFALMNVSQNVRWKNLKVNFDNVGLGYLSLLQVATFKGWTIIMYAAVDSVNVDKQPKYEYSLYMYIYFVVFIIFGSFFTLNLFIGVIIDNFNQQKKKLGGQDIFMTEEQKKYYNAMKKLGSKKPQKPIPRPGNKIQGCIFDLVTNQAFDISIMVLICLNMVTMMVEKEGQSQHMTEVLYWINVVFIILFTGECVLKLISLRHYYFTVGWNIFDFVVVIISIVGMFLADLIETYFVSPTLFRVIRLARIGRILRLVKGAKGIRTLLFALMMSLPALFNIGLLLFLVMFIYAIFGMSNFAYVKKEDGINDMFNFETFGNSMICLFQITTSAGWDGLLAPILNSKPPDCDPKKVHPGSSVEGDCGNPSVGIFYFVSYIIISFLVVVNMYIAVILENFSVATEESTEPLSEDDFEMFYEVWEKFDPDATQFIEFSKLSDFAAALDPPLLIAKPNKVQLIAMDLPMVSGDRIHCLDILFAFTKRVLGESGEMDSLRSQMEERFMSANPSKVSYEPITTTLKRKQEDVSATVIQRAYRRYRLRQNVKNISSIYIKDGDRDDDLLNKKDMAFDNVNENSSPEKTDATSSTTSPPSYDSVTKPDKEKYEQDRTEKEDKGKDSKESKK
Cell maintenance: Unless otherwise noted, cell culture reagents were purchased from Mediatech of Herndon, Va. The recombinant Nav1.7/HEK293 cells were routinely cultured in growth medium consisting of Dulbecco's […] containing 10% fetal bovine serum (FBS, Hyclone, Thermo Fisher Scientific, Logan, Utah), 100 U/mL penicillin, […], 2-4 mM L-glutamine, and […]. For natural, non-recombinant cell lines, the selective antibiotic was omitted, and additional media formulations can be applied as needed.
The intensity of this emission, but not the wavelength range, is increased when the dye is exposed to Na^+ ions, which it can bind with partial selectivity. Cells expressing Nav1.7 or other sodium channels were loaded with the CoroNa™ Green dye immediately in advance of the fluorescence assay, and then, after agonist stimulation, the mobilization of Na^+ ions was detected as the Na^+ ions flowed from the extracellular fluid into the cytoplasm through the activated sodium channel pores. The dye was stored in the dark as a lyophilized powder, and then an aliquot was dissolved immediately before the cell loading procedure, according to the instructions of the manufacturer to a stock concentration of 10 mM in DMSO. It was then diluted in the assay buffer to a 4× concentrated working solution, so that the final concentration of dye in the cell loading buffer was 5 μM.
These scorpion toxins inhibit the fast inactivation of their cognate target channels. Stock solutions of the agonists were prepared to 40 mM in DMSO (veratridine) and 1 mg/mL in dH2O (scorpion venom), and then diluted to make a 4× or 2× stock (depending on the particular assay) in assay buffer, the final concentration being 100 μM (veratridine) and 10 μg/mL (scorpion venom). Both of the agonists were purchased from Sigma Aldrich, St. Louis, Mo.
Test Compounds: Test compounds were dissolved in DMSO to yield 10 mM stock solutions. […] If a particular test article appeared to be especially potent, then the concentration curve was adjusted, e.g., to 10-fold lower concentrations, in order to perform the dose-response in a more relevant concentration range. Compound dilutions were added during the dye-loading and pre-stimulation step, and then again during the fluorescence assay, early in the kinetic read.
Data Analysis: The data were analyzed according to methods known to those skilled in the art or using the GraphPad® Prism 4.0 Program (available from GraphPad Software, San Diego, Calif.) to determine the IC50 value for the test article. At least one standard reference compound was evaluated during each experiment.
FLIPR® or FLIPR^TETRA® sodium dye assay with KCl and test article pre-incubation: Cells were prepared by plating the recombinant HEK293 cells or other host cells expressing either recombinant or non-recombinant, native, Nav1.7 alpha subunit, alone or in combination with various beta and gamma subunits at a density of ˜40,000 cells/well into a 96-well black, clear-bottom, PDL-coated plate. The assay can be adapted to 384-well or 1,536-well format, if desired, using proportionately less cells and media. […] For counter-screens of other voltage-gated sodium channels, the procedure was very similar, though optimal densities of cells, media and subsequent assay components can be fine-tuned for the particular cell line or isoform.
The term IC50 denotes the concentration that gives 50% inhibition. Consider `N#Cc1cc(Oc2ccc(-n3cc(C(O)CO)c4ccccc43)cc2)ccc1C(F)(F)F` (stereo not shown) [Compound 51, 5-{4-[3-(1,2-Dihydroxyethyl)-1H-indol-1-yl]phenoxy}-2-(trifluoromethyl)benzonitrile], for which the IC50 was determined as 0.26 ± 0.009 µM.

In the case of `O=C(NO)c1nn(-c2ccc(Oc3ccccc3)cc2)c2ccccc12` [Compound 146, N-Hydroxy-1-(4-phenoxyphenyl)-1H-indazole-3-carboxamide], the IC50 came to 8.07 ± 0.484 µM.

Take `CCN(CC)CCn1ccc2cc(-c3ccc(Oc4ccc(F)cc4)cc3)ccc21` [Compound 177, N,N-Diethyl-2-(5-(4-(4-fluorophenoxy)phenyl)-1H-indol-1-yl)ethanamine]: the IC50 turned out to be 0.895 ± 0.154 µM.

Take `CCN(CC)CCn1cc(C(=O)C(N)=O)c2cc(-c3ccc(Oc4ccc(F)cc4)cc3)ccc21` [Compound 178, 2-(1-(2-Diethylamino)ethyl-5-(4-(4-fluorophenoxy)phenyl)-1H-indol-3-yl)-2-oxoacetamide]: the IC50 was determined as 1.03 ± 0.076 µM.

On to `N#Cc1ccc(Oc2ccc(-n3cc(C[C@@H](O)CO)c4ccccc43)cc2)cc1` [Compound 77, (R)-4-(4-(3-(2,3-Dihydroxypropyl)-1H-indol-1-yl)phenoxy)benzonitrile], for which the IC50 is 0.48 ± 0.087 µM.

As to `NC(=O)c1nn(-c2ccc(Oc3ccccc3)cc2)c2ccccc12` [Compound 145, 1-(4-Phenoxyphenyl)-1H-indazole-3-carboxamide], the IC50 is 0.326 ± 0.043 µM.

Consider `N#Cc1ccc(Oc2ccc(-n3cc(C(O)C(N)=O)c4ccccc43)cc2)cc1C(F)(F)F` (stereo not shown) [Compound 193, 2-(1-(4-(4-Cyano-3-(trifluoromethyl)phenoxy)phenyl)-1H-indol-3-yl)-2-hydroxyacetamide], for which the IC50 worked out at 0.414 ± 0.026 µM.

With `N#Cc1ccc(Oc2ccc(-n3cc(C(O)(C(N)=O)C(F)(F)F)c4ccccc43)cc2)cc1C(F)(F)F` (stereo not shown) [Compound 192, 2-(1-(4-(4-Cyano-3-(trifluoromethyl)phenoxy)phenyl)-1H-indol-3-yl)-3,3,3-trifluoro-2-hydroxypropanamide], the IC50 is 0.475 ± 0.065 µM.

The same test, now with this note: sodium dye assay with KCl; recombinant human Nav1.7 in HEK293 cells; value ± SEM.
Turning to `OC[C@@H](O)Cc1cn(-c2ccc(Oc3ccc(C(F)(F)F)cn3)cc2)c2ccccc12` [Compound 83, (S)-3-(1-(4-((5-(Trifluoromethyl)pyridin-2-yl)oxy)phenyl)-1H-indol-3-yl)propane-1,2-diol], the IC50 turned out to be 0.257 ± 0.067 µM.

Consider `NC(=O)Cn1cc(C[C@H](O)CO)c2cc(-c3ccc(Oc4ccc(F)cc4)cc3)ccc21` [Compound 186, (S)-2-(3-(2,3-Dihydroxypropyl)-5-(4-(4-fluorophenoxy)phenyl)-1H-indol-1-yl)acetamide], for which the IC50 is 0.717 ± 0.042 µM.

Regarding `CCOC(=O)C(Cc1c[nH]c2cc(-c3ccc(Oc4ccccc4)cc3)ccc12)NC(=O)OC(C)(C)C` (stereo not shown) [Compound 16, 2-tert-Butoxycarbonylamino-3-[6-(4-phenoxyphenyl)-1H-indol-3-yl]-propionic acid ethyl ester], the IC50 is 2.52 ± 0.663 µM.

`N#Cc1cccc2c(C[C@H](O)CO)cn(-c3ccc(Oc4ccc(F)cc4)cc3)c12` [Compound 115, (S)-3-(2,3-Dihydroxypropyl)-1-(4-(4-fluorophenoxy)phenyl)-1H-indole-7-carbonitrile]: the 50% inhibitory concentration (IC50) was 0.474 ± 0.133 µM.

As for `N#Cc1cccc2c1c(C[C@H](O)CO)cn2-c1ccc(Oc2ccc(F)cc2)cc1` [Compound 120, (S)-3-(2,3-Dihydroxypropyl)-1-(4-(4-fluorophenoxy)phenyl)-1H-indole-4-carbonitrile], the IC50 was 0.262 ± 0.066 µM.

`CC(C)(C)OC(=O)NC(Cc1c[nH]c2cc(-c3ccc(Oc4ccccc4)cc3)ccc12)C(=O)O` (stereo not shown) [Compound 17, 2-tert-Butoxycarbonylamino-3-[6-(4-phenoxyphenyl)-1H-indol-3-yl]-propionic acid]: the IC50 worked out at 1.93 ± 0.228 µM.

As for `N[C@H](CO)Cc1cn(-c2ccc(Oc3ccc(C(F)(F)F)cn3)cc2)c2ccccc12` [Compound 196, (S)-2-Amino-3-(1-(4-((5-(trifluoromethyl)pyridin-2-yl)oxy)phenyl)-1H-indol-3-yl)propan-1-ol], the IC50 worked out at 0.34 ± 0.023 µM.

Consider `NC(=O)C(O)c1cn(-c2ccc(Oc3ccc(C(F)(F)F)cn3)cc2)c2ccccc12` (stereo not shown) [Compound 195, 2-Hydroxy-2-(1-(4-((5-(trifluoromethyl)pyridin-2-yl)oxy)phenyl)-1H-indol-3-yl)acetamide], for which the IC50 was found to be 0.276 ± 0.011 µM.

On to `CN(c1ccc(F)cc1)S(=O)(=O)c1ccc(-n2cc(C[C@H](O)CO)c3ccccc32)cc1` [Compound 90, (S)-4-(3-(2,3-Dihydroxypropyl)-1H-indol-1-yl)-N-(4-fluorophenyl)-N-methylbenzenesulfonamide], for which the IC50 stood at 0.865 ± 0.058 µM.

Consider `N#Cc1ccc2c(c1)c(C[C@H](O)CO)cn2-c1ccc(Oc2ccc(F)cc2)cc1` [Compound 110, (S)-3-(2,3-Dihydroxypropyl)-1-(4-(4-fluorophenoxy)phenyl)-1H-indole-5-carbonitrile], for which the IC50 came to 2.45 ± 0.542 µM.

As to `CS(=O)(=O)NC(Cc1cn(-c2ccc(Oc3ccccc3)cc2)c2ccccc12)C(N)=O` (stereo not shown) [Compound 39, 2-Methanesulfonylamino-3-[1-(4-phenoxyphenyl)-1H-indol-3-yl]propionamide], the IC50 was 1.01 ± 0.162 µM.

As for `OCc1cn(-c2ccc(Oc3ccc(C(F)(F)F)cc3)cc2)c2cnccc12` [Compound 164, (1-(4-(4-(Trifluoromethyl)phenoxy)phenyl)-1H-pyrrolo[2,3-c]pyridin-3-yl)methanol], the IC50 is 0.345 ± 0.027 µM.

For the molecule `N#Cc1ccc(Oc2ccc(-n3cc(C[C@H](O)CO)c4ccncc43)cc2)cc1` [Compound 170], the IC50 came to 1.38 ± 0.542 µM.

On to `OCCn1cc(C[C@H](O)CO)c2cc(-c3ccc(Oc4ccc(F)cc4)cc3)ccc21` [Compound 200, (S)-3-(5-(4-(4-fluorophenoxy)phenyl)-1-(2-hydroxyethyl)-1H-indol-3-yl)propane-1,2-diol], for which the IC50 is 0.273 ± 0.061 µM.

As to `NC(=O)C(N)Cc1c(-c2ccc(Oc3ccccc3)cc2)[nH]c2ccccc12` (stereo not shown) [Compound 28, 2-Amino-3-[2-(4-phenoxyphenyl)-1H-indol-3-yl]propionamide], the IC50 was found to be 0.24 ± 0.023 µM.

With `NC(Cc1cn(-c2ccc(Oc3ccccc3)cc2)c2ccccc12)C(=O)NCCO` (stereo not shown) [Compound 37, 2-Amino-N-(2-hydroxyethyl)-3-[1-(4-phenoxyphenyl)-1H-indol-3-yl]-propionamide], the IC50 came out at 0.364 ± 0.112 µM.

For `N#Cc1cc(Oc2ccc(-n3cc(C[C@H](O)CO)c4c(C(O)CO)cccc43)cc2)ccc1C(F)(F)F` (stereo partly drawn) [Compound 141, 5-(4-(4-(1,2-Dihydroxyethyl)-3-((S)-2,3-dihydroxypropyl)-1H-indol-1-yl)phenoxy)-2-(trifluoromethyl)benzonitrile], the IC50 is 1.97 ± 0.494 µM.

In the case of `O=C(O)c1cccc2c1c(C[C@H](O)CO)cn2-c1ccc(Oc2ccc(F)cc2)cc1` [Compound 129, (S)-3-(2,3-Dihydroxypropyl)-1-(4-(4-fluorophenoxy)phenyl)-1H-indole-4-carboxylic acid], the 50% inhibitory concentration (IC50) was 3.33 ± 0.495 µM.

On to `CCN(CC)CCn1cc(C[C@H](O)CO)c2cc(-c3ccc(Oc4ccc(F)cc4)cc3)ccc21` [Compound 182], for which the IC50 worked out at 1.06 ± 0.026 µM.

For the molecule `N#Cc1ccc2c(C[C@H](O)CO)cn(-c3ccc(Oc4ccc(F)cc4)cc3)c2c1` [Compound 105, (S)-3-(2,3-Dihydroxypropyl)-1-(4-(4-fluorophenoxy)phenyl)-1H-indole-6-carbonitrile], the IC50 is 1.65 ± 0.438 µM.
